Source: patent US8263596B2, “Kinase inhibitors and method of treating cancer” (University Health Network, priority 2010, dated 2012)
Read-outs that look alike come from different tables or passages of the source.

Tests used:
[1] = target: T1, human PLK4 (Homo sapiens, UniProt O00444); assay: PLK4 inhibition assay (indirect ELISA); format: biochemical
T1 construct: amino terminal GST fusion of residues 1-391 of human PLK4; made in house; host or cells: E. coli
T1 sequence (O00444 1-391): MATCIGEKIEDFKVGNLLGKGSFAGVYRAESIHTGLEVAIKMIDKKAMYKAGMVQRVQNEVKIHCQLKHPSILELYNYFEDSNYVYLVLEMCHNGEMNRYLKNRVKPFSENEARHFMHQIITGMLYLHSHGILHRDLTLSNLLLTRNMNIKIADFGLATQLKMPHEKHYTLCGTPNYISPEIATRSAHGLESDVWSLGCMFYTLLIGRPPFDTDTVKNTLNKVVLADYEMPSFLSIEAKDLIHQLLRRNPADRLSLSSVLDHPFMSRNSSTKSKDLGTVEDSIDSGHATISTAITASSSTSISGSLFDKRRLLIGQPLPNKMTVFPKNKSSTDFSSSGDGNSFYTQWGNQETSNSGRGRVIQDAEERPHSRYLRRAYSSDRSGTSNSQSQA
Protocol: PLK4 activity was measured using an indirect ELISA detection system. […] The colourimetric reaction was allowed to continue for 5 minutes, followed by addition of stop solution (0.5 N sulphuric acid), and quantified by detection at 450 nm with either a monochromatic or filter based plate reader (Molecular Devices M5 or Beckman DTX880, respectively).
Compounds were pre-incubated in the presence of enzyme for 15 minutes prior to addition of ATP and the activity remaining quantified using the above described activity assay. […] The IC50 value was determined using a non-linear 4 point logistic curve fit (XLfit4, IDBS) with the formula; (A+(B/(1+((x/C)^D)))), where A=background value, B=range, C=inflection point, D=curve fit parameter.

[2] = target: T2, Aurora A (Homo sapiens, UniProt O14965); assay: Aurora A inhibition assay (Z-Lyte); format: biochemical
T2 sequence (O14965 1-403): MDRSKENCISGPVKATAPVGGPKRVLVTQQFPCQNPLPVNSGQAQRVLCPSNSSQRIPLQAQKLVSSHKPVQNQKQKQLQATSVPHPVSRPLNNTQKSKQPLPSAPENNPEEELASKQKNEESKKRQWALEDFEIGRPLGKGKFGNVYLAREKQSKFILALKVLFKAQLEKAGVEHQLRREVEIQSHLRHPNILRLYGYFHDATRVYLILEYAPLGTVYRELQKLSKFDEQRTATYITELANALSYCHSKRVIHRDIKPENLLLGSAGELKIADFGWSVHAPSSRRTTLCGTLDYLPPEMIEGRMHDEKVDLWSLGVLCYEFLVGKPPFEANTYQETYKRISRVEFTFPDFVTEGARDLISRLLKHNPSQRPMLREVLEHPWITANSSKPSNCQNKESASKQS

[3] = target: Aurora B (Homo sapiens, UniProt Q96GD4); assay: Aurora B inhibition assay (Z-Lyte); format: biochemical; details: read-out: IC50 Ranges Aurora B
Protocol: Aurora B inhibition was determined using the Z-Lyte assay kit from Invitrogen. […] The % inhibition values were determined according to the manufacturer's directions and IC50 values were obtained using a non-linear 4 point logistic curve fit (XLfit4, IDBS)

[4] = test system: HUV-EC-C cells; assay: In vitro angiogenesis assay (tube formation); format: cell-based; details: 4 hr
Protocol: Activity against these RTKs can result in antiangiogenic activity which is associated with slowed tumor growth and/or tumor regression. To measure the antiangiogenic effects of compounds of the invention, selected examples were tested in an angiogenesis assay as described below.
HUV-EC-C cells were obtained from the American Type Culture Collection (ATCC, CRL-1730), and were used at early passage for the assay. The in vitro Angiogenesis Assay Kit (Chemicon) was used according to the manufacturer's recommendation. An ice-cold mixture of ECMatrix was transferred into a precooled 96-well plate. After the matrix solution had solidified (>1 hr incubation at 37° C.), 8,000 cells were mixed with the appropriate inhibitor concentration (in 100 microlitres EGM-2) and plated into each well. The clinical antiangiogenic, Sutent was used as a positive control in comparison to a compound of the invention, A13. After incubation at 37° C. for 4 hr, tube formation was inspected. Two methods, pattern recognition and branch point counting, were used to quantify the progression of angiogenesis and expressed as a percentage of the control tube count (FIGS. 1 and 2).

[5] = target: T3, FLT3 (Homo sapiens, UniProt P36888); assay: FLT3 inhibition assay (Z-Lyte); format: biochemical; details: read-out: IC50 Ranges Flt3
T3 construct: purchased Invitrogen PV3182
T3 sequence (P36888 27-993): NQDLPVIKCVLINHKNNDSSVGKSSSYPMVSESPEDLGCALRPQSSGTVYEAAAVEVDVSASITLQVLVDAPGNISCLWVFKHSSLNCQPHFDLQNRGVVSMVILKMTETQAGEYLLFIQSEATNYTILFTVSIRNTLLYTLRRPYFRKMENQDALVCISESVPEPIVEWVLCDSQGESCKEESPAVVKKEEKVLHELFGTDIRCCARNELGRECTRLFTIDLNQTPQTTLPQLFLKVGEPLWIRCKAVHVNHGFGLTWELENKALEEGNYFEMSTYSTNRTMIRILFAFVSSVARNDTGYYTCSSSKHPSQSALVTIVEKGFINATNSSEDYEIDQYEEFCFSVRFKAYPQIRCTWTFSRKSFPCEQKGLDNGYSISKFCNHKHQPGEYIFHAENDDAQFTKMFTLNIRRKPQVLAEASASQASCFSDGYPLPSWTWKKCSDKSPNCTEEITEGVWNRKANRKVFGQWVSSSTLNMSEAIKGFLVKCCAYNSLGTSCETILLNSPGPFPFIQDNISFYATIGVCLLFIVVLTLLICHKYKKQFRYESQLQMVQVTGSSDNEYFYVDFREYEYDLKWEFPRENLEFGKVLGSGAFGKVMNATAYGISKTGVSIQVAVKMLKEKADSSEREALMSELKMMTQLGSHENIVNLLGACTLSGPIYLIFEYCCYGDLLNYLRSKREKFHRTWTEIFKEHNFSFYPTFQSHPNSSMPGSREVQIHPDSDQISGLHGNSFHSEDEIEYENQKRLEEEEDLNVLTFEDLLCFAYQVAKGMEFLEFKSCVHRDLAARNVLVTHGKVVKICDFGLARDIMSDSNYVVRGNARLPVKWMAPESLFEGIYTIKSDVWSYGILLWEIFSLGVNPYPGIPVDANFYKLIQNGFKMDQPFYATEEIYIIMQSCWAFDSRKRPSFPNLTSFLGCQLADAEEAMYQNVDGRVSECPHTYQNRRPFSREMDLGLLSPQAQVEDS
Protocol: The enzymatic activity of FLT3 was determined using the Z-Lyte assay kit from Invitrogen (Invitrogen cat #PV3191). […] The % inhibition values were determined according to the manufacturer's directions and IC50 values were obtained using a non-linear 4 point logistic curve fit (XLfit4, IDBS).

Sequence of Aurora B (Q96GD4 whole entry): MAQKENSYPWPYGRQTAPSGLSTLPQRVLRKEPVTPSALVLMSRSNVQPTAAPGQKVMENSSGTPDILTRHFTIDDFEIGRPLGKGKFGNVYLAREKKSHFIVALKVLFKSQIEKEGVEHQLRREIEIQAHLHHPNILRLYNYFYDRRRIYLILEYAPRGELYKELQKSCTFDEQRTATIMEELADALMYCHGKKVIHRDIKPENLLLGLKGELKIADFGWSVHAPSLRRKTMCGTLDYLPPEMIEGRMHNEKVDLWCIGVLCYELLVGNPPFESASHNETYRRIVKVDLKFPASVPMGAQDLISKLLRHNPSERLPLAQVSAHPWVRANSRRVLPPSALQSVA

Row | SMILES | IC50 [2] [nM] | IC50 [3] [nM] | antiangiogenic effect (tube formation) [4] | also measured
1 | CN1CCN(c2ccc(-c3n[nH]c4cc([C@@H]5C[C@@]56C(=O)Nc5ccccc56)ccc34)cn2)CC1 (racemic) [Example A18, (1R*,2S*)-2-(3-(6-(4-Methylpiperazin-1-yl)pyridin-3-yl)-1H-indazol-6-yl)spiro[cyclopropane-1,3′-indolin]-2′-one] | 100 to 1000 | < 100 |  | IC50 [1]: < 100 nM
2 | COc1ccc2c(c1)[C@]1(C[C@H]1c1ccc3c(-c4ccc(N5CCN(C)CC5)nc4)n[nH]c3c1)C(=O)N2 (relative stereo) [Example A13, (1R*,2S*)-5′-Methoxy-2-(3-(6-(4-methylpiperazin-1-yl)pyridin-3-yl)-1H-indazol-6-yl)spiro[cyclopropane-1,3′-indolin]-2′-one] |  |  | anti-agiogenic effects at submicromolar concentrations | 
3 | O=C1Nc2ccccc2[C@]12C[C@H]2c1ccc2c(/C=C/c3ccncc3)n[nH]c2c1 (relative stereo) [Example A22, (1R*,2S*)-(E)-2-(3-(2-(pyridin-4-yl)vinyl)-1H-indazol-6-yl)spiro-[cyclo-propane-1,3′-indolin]-2′-one] |  |  | anti-agiogenic effects at submicromolar concentrations | 
4 | CN(C)Cc1ccc(/C=C/c2n[nH]c3cc([C@@H]4C[C@@]45C(=O)Nc4ccccc45)ccc23)cc1 (relative stereo) [Example A23, (1R*,2S*)-(E)-2-(3-(4-((dimethylamino)methyl)styryl)-1H-indazol-6-yl)spiro[cyclopropane-1,3′-indolin]-2′-one 2,2,2-trifluoroacetate] |  |  | anti-agiogenic effects at submicromolar concentrations | 
5 | COc1ccc2c(c1)[C@]1(C[C@H]1c1ccc3c(-c4cccc(CN5CCOCC5)c4)n[nH]c3c1)C(=O)N2 (relative stereo) [Example A136, (1R*,2S*)-5′-methoxy-2-(3-(3-(morpholinomethyl)phenyl)-1H-indazol-6-yl)spiro[cyclopropane-1,3′-indolin]-2′-one 2,2,2-trifluoroacetate] |  | < 100 |  | IC50 ([1]; read-out: IC50 Ranges PLK4): < 100 nM; IC50 [5]: > 1000 nM
6 | COc1ccc2c(c1)[C@]1(C[C@H]1c1ccc3c(/C=C/c4ccc(C(=O)N5CCN(C)CC5)cc4)n[nH]c3c1)C(=O)N2 (relative stereo) [Example A179, (1R*,2S*)-(E)-5′-methoxy-2-(3-(4-(4-methylpiperazine-1-carbonyl)styryl)-1H-indazol-6-yl)spiro[cyclopropane-1,3′-indolin]-2′-one 2,2,2-trifluoroacetate] | < 100 | < 100 |  | IC50 ([1]; read-out: IC50 Ranges PLK4): < 100 nM
7 | COCCN1C(=O)[C@@]2(C[C@H]2c2ccc3c(/C=C/c4ccc(CN(C)C)cc4)n[nH]c3c2)c2ccccc21 (relative stereo) [Example A180, (1R*,2S*)-(E)-2-(3-(4-((dimethylamino)methyl)styryl)-1H-indazol-6-yl)-1′-(2-methoxyethyl)spiro[cyclopropane-1,3′-indolin]-2′-one 2,2,2-trifluoroacetate] | < 100 |  |  | 
8 | COc1ccc2c(c1)[C@]1(C[C@H]1c1ccc3c(/C=C/c4cccc(CN5CCOCC5)c4)n[nH]c3c1)C(=O)N2 [Example A132, (1R,2S)-5′-methoxy-2-(3-(3-(morpholinomethyl)styryl)-1H-indazol-6-yl)spiro[cyclopropane-1,3′-indolin]-2′-one 2,2,2-trifluoroacetate] | 100 to 1000 |  |  | 
9 | COc1ccc2c(c1)[C@]1(C[C@H]1c1ccc3c(/C=C/c4cccc(CN(C)C)c4)n[nH]c3c1)C(=O)N2 [Example A134, (1R,2S)-2-(3-(3-((dimethylamino)methyl)styryl)-1H-indazol-6-yl)-5′-methoxyspiro[cyclopropane-1,3′-indolin]-2′-one 2,2,2-trifluoroacetate] | 100 to 1000 |  |  | 
